# Target: PI3K (p110α/p85α) (Homo sapiens (Human), UniProt P42336)
# Test: PI3K HTRF enzyme assay, p110α/p85α
# Format: biochemical
# Settings: read-out: % inhibition @ 500 nM p110α; compound at 500 nM, 10 μM ATP
# Method: Recombinant PI3K (p110α/p85α) and PI3K (p110β/p85α) were from Millipore. […] Briefly, the compounds of interest dissolved in 100% DMSO were dispensed in all wells, following which the mixture of PIP2 and enzyme was added. PI3K (p110α/p85α) and PI3K (p110β/p85α) enzyme reactions were initiated in the presence of 10 μM and 100 μM ATP, respectively, and incubated for 30 min at room temperature. STOP solution prepared 2 hours prior to use was added to stop reactions, and mixed well. Detection solution prepared 2 hours prior to use was added, and incubated at room temperature for 17 hours in the dark. […] HTRF ration was calculated as follows: […]
# PI3K (p110α/p85α), sequence (P42336 whole entry, species assumed): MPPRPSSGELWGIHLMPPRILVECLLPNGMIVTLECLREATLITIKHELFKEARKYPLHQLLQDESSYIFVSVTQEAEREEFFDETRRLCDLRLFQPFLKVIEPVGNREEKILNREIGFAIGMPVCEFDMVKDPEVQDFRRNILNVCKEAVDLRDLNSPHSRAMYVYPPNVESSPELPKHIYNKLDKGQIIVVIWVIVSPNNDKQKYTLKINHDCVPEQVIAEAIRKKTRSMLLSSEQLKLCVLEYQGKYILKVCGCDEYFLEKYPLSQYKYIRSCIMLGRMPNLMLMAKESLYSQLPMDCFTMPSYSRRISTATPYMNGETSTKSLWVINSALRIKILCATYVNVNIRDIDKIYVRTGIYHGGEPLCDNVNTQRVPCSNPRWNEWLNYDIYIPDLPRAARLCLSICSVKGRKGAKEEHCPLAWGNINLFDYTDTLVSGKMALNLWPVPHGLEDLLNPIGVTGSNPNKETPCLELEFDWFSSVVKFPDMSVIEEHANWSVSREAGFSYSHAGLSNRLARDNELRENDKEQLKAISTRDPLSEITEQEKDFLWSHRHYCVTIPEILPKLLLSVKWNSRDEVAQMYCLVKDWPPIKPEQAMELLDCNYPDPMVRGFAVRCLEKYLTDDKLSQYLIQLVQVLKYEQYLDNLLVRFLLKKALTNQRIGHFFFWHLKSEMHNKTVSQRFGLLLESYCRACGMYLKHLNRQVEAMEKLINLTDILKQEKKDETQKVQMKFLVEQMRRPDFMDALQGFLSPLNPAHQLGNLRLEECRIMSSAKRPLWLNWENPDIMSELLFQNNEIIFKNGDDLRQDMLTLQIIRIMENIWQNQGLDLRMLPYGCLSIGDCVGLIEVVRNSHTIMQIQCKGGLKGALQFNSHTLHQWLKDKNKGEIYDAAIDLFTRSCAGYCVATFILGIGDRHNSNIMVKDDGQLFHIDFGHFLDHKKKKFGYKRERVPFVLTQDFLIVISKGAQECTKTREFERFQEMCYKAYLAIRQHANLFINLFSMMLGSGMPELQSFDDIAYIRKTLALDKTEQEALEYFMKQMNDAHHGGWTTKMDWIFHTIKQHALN
# PI3K (p110α/p85α), sequence (P27986 whole entry partner, species assumed): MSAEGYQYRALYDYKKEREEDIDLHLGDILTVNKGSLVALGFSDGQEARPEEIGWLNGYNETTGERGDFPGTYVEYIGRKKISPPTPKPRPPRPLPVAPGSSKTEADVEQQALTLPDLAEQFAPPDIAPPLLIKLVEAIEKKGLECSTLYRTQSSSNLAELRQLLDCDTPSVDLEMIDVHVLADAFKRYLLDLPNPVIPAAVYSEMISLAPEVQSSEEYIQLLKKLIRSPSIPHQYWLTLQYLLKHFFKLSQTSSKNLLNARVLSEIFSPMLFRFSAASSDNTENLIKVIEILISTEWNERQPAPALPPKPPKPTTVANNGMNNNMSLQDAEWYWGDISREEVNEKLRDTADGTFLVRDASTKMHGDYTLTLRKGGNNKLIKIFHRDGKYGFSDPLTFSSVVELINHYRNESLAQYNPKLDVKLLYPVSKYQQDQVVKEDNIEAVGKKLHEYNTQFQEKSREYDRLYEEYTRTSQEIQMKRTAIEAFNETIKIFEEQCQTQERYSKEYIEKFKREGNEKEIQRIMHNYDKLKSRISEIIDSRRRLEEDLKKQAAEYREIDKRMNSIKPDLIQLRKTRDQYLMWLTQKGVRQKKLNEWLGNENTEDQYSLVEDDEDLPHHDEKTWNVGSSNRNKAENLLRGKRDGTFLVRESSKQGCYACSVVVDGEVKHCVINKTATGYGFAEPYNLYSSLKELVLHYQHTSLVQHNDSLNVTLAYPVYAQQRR
row,Structure (SMILES),inhibition at 0.5 µM [%]
1,"COc1cnc(-c2ccc(NC(=O)Nc3ccc(C(=O)N4CCOCC4)cc3)cc2)nc1N1CCOCC1 [MTR-0382, 1-[4-(5-Methoxy-4-morpholin-4-yl-pyrimidin-2-yl)-phenyl]-3-[4-(morpholine-4-carbonyl)-phenyl]urea]",95.9
2,"CCOC(=O)c1nc(-c2ccc(NC(=O)Nc3ccc(N4CCOCC4=O)cc3)cc2)nc(N2CCOCC2)c1OCC [MTR-0222, 5-Ethoxy-6-morpholin-4-yl-2-(4-{3-[4-(3-oxo-morpholin-4-yl)-phenyl]-ureido}-phenyl)-pyrimidine-4-carboxylic acid ethyl ester]",44.3
3,"O=C(Nc1ccc(-c2ncc(OCCN3CCOCC3)c(N3CCOCC3)n2)cc1)Nc1ccc(N2CCOCC2=O)cc1 [MTR-0455, 1-{4-[4-Morpholin-4-yl-5-(2-morpholin-4-yl-ethoxy)-pyrimidin-2-yl]-phenyl}-3-[4-(3-oxo-morpholin-4-yl)-phenyl]-urea]",48.9
4,"CSc1c(N2CCOCC2)nc(-c2ccc(NC(=O)Nc3ccccc3)cc2)nc1N1CCN(S(C)(=O)=O)CC1 [MTR-0173, 1-{4-[4-(4-Methanesulfonyl-piperazin-1-yl)-5-methylsulfanyl-6-morpholin-4-yl-pyrimidin-2-yl]-phenyl}-3-phenyl-urea]",82.1
5,"CSc1c(Cl)nc(-c2ccc(NC(=O)Nc3ccc(N4CCOCC4)c(F)c3)cc2)nc1N1CCOCC1 [MTR-0211, 1-[4-(4-Chloro-5-methylsulfanyl-6-morpholin-4-yl-pyrimidin-2-yl)-phenyl]-3-(3-fluoro-4-morpholin-4-yl-phenyl)-urea]",42
6,"COc1cnc(-c2ccc(NC(=O)Nc3cccc(C(N)=O)c3)cc2)nc1N1CCOCC1 [MTR-0313, 3-{3-[4-(5-Methoxy-4-morpholin-4-yl-pyrimidin-2-yl)-phenyl]-ureido}-benzamide]",86.9
7,"COc1cnc(-c2ccc(NC(=O)Nc3ccc(F)c(F)c3)cc2)nc1N1CCOCC1 [MTR-0165, 1-(3,4-Difluoro-phenyl)-3-[4-(5-methoxy-4-morpholin-4-yl-pyrimidin-2-yl)-phenyl]-urea]",101
8,"CSc1cnc(-c2ccc(NC(=O)Nc3ccc(N4CCOCC4=O)cc3)cc2)nc1N1CCOCC1 [MTR-0227, 1-[4-(5-Methylsulfanyl-4-morpholin-4-yl-pyrimidin-2-yl)-phenyl]-3-[4-(3-oxo-morpholin-4-yl)-phenyl]-urea]",87
9,"COc1cnc(-c2ccc(NC(=O)Nc3ccc(NS(C)(=O)=O)cc3)cc2)nc1N1CCOCC1 [MTR-0449, N-(4-{3-[4-(5-Methoxy-4-morpholin-4-yl-pyrimidin-2-yl)-phenyl]-ureido}-phenyl)-methanesulfonamide]",75.4
10,"CSc1cnc(-c2ccc(NC(=O)Nc3ccc(N4CCOCC4)cc3)cc2)nc1N1CCOCC1 [MTR-0248, 1-[4-(5-Methylsulfanyl-4-morpholin-4-yl-pyrimidin-2-yl)-phenyl]-3-(4-morpholin-4-yl-phenyl)-urea]",45.8
11,"CSc1cnc(-c2ccc(NC(=O)Nc3ccc(C(N)=O)cc3)cc2)nc1N1CCOCC1 [MTR-0267, 4-{3-[4-(5-Methylsulfanyl-4-morpholin-4-yl-pyrimidin-2-yl)-phenyl]-ureido}-benzamide]",83.7
12,"CSc1c(Cl)nc(-c2ccc(NC(=O)Nc3ccc(NS(C)(=O)=O)cc3)cc2)nc1N1CCOCC1 [MTR-0347, N-(4-{3-[4-(4-Chloro-5-methylsulfanyl-6-morpholin-4-yl-pyrimidin-2-yl)-phenyl]-ureido}-phenyl)-methanesulfonamide]",80.6
13,"CCOC(=O)c1nc(-c2ccc(NC(=O)Nc3ccc4oc(=O)[nH]c4c3)cc2)nc(N2CCOCC2)c1OCC [MTR-0299, 5-Ethoxy-6-morpholin-4-yl-2-{4-[3-(2-oxo-2,3-dihydro-benzooxazol-5-yl)-ureido]-phenyl}-pyrimidine-4-carboxylic acid ethyl ester]",44.3
14,"CCOc1cnc(-c2ccc(NC(=O)Nc3ccc(NS(C)(=O)=O)cc3)cc2)nc1N1CCOCC1 [MTR-0394, N-(4-{3-[4-(5-Ethoxy-4-morpholin-4-yl-pyrimidin-2-yl)-phenyl]-ureido}-phenyl)-methanesulfonamide]",70.5
15,"CSc1cnc(-c2ccc(NC(=O)Nc3ccc(S(N)(=O)=O)cc3)cc2)nc1N1CCOCC1 [MTR-0288, 4-{3-[4-(5-Methylsulfanyl-4-morpholin-4-yl-pyrimidin-2-yl)-phenyl]-ureido}-benzenesulfonamide]",79.2
16,"CSc1cnc(-c2ccc(NC(=O)Nc3ccc(NS(C)(=O)=O)cc3)cc2)nc1N1CCOCC1 [MTR-0376, N-(4-{3-[4-(5-Methylsulfanyl-4-morpholin-4-yl-pyrimidin-2-yl)-phenyl]-ureido}-phenyl)-methanesulfonamide]",79.4
17,"COc1cnc(-c2ccc(NC(=O)Nc3ccc(N4CCOCC4=O)cc3)c(F)c2)nc1N1CCOCC1 [MTR-0405, 1-[2-Fluoro-4-(5-methoxy-4-morpholin-4-yl-pyrimidin-2-yl)-phenyl]-3-[4-(3-oxo-morpholin-4-yl)-phenyl]-urea]",52.5

row,Structure (SMILES),inhibition at 0.5 µM [%]
1,"COc1cnc(-c2ccc(NC(=O)Nc3ccc(N4CCSCC4)cc3)cc2)nc1N1CCOCC1 [MTR-0262, 1-[4-(5-Methoxy-4-morpholin-4-yl-pyrimidin-2-yl)-phenyl]-3-(4-thiomorpholin-4-yl-phenyl)-urea]",56.3
2,"CSc1c(Cl)nc(-c2ccc(NC(=O)Nc3ccc(C(=O)N4CCN(C)CC4)cc3)cc2)nc1N1CCOCC1 [MTR-0271, 1-[4-(4-Chloro-5-methylsulfanyl-6-morpholin-4-yl-pyrimidin-2-yl)-phenyl]-3-[4-(4-methyl-piperazine-1-carbonyl)-phenyl]-urea]",94.5
3,"CCOc1cnc(-c2ccc(NC(=O)Nc3ccc(C(N)=O)cc3)cc2)nc1N1CCOCC1 [MTR-0323, 4-{3-[4-(5-Ethoxy-4-morpholin-4-yl-pyrimidin-2-yl)-phenyl]-ureido}-benzamide]",90.8
4,"CCOc1cnc(-c2ccc(NC(=O)Nc3ccc(N4CCN(S(C)(=O)=O)CC4)cc3)cc2)nc1N1CCOCC1 [MTR-0420, 1-[4-(5-Ethoxy-4-morpholin-4-yl-pyrimidin-2-yl)-phenyl]-3-[4-(4-methanesulfonyl-piperazin-1-yl)-phenyl]-urea]",58.6
5,"CSc1cnc(-c2ccc(NC(=O)Nc3cccnc3)cc2)nc1N1CCOCC1 [MTR-0225, 1-[4-(5-Methylsulfanyl-4-morpholin-4-yl-pyrimidin-2-yl)-phenyl]-3-pyridin-3-yl-urea]",43.8
6,"CCOC(=O)c1nc(-c2ccc(NC(=O)Nc3ccc(S(N)(=O)=O)cc3)cc2)nc(N2CCOCC2)c1OCC [MTR-0273, 5-Ethoxy-6-morpholin-4-yl-2-{4-[3-(4-sulfamoyl-phenyl)-ureido]-phenyl}-pyrimidine-4-carboxylic acid ethyl ester]",50.2
7,"COc1cnc(-c2ccc(NC(=O)Nc3ccc(C(N)=O)cc3)c(F)c2)nc1N1CCOCC1 [MTR-0385, 4-{3-[2-Fluoro-4-(5-methoxy-4-morpholin-4-yl-pyrimidin-2-yl)-phenyl]-ureido}-benzamide]",64
8,"CCOC(=O)c1nc(-c2ccc(NC(=O)Nc3ccc(C(=O)N4CCOCC4)cc3)cc2)nc(N2CCOCC2)c1OCC [MTR-0278, 5-Ethoxy-2-(4-{3-[4-(morpholine-4-carbonyl)-phenyl]-ureido}-phenyl)-6-morpholin-4-yl-pyrimidine-4-carboxylic acid ethyl ester]",58.6
9,"CSc1c(Cl)nc(-c2ccc(NC(N)=O)cc2)nc1N1CCOCC1 [MTR-0083, [4-(4-Chloro-5-methylsulfanyl-6-morpholin-4-yl-pyrimidin-2-yl)-phenyl]-urea]",44.8
10,"COc1cnc(-c2ccc(NC(=O)Nc3ccc(C(=O)NCCCN(C)C)cc3)cc2)nc1N1CCOCC1 [MTR-0427, N-(3-Dimethylamino-propyl)-4-{3-[4-(5-methoxy-4-morpholin-4-yl-pyrimidin-2-yl)-phenyl]-ureido}-benzamide]",71.1
11,"C[S+]([O-])c1cnc(-c2ccc(NC(=O)Nc3ccc(N4CCOCC4=O)cc3)cc2)nc1N1CCOCC1 (stereo not drawn) [MTR-0401, 1-[4-(5-Methanesulfinyl-4-morpholin-4-yl-pyrimidin-2-yl)-phenyl]-3-[4-(3-oxo-morpholin-4-yl)-phenyl]-urea]",41.7
12,"CCOC(=O)c1nc(-c2ccc(NC(=O)Nc3ccc(C(=O)NCCN(C)C)cc3)cc2)nc(N2CCOCC2)c1OCC [MTR-0277, 2-(4-{3-[4-(2-Dimethylamino-ethylcarbamoyl)-phenyl]-ureido}-phenyl)-5-ethoxy-6-morpholin-4-yl-pyrimidine-4-carboxylic acid ethyl ester]",61.9
13,"CSc1c(Cl)nc(-c2ccc(NC(=O)Nc3ccncc3)cc2)nc1N1CCOCC1 [MTR-0469, 1-[4-(4-Chloro-5-methylsulfanyl-6-morpholin-4-yl-pyrimidin-2-yl)-phenyl]-3-pyridin-4-yl-urea]",81.7
14,"COc1cnc(-c2ccc(NC(=O)Nc3ccccc3)cc2)nc1N1CCOCC1 [MTR-0128, 1-[4-(5-Methoxy-4-morpholin-4-yl-pyrimidin-2-yl)-phenyl]-3-phenyl-urea]",85.8
15,"COc1cnc(-c2ccc(NC(=O)Nc3ccc(C(N)=O)cc3)cc2F)nc1N1CCOCC1 [MTR-0407, 4-{3-[3-Fluoro-4-(5-methoxy-4-morpholin-4-yl-pyrimidin-2-yl)-phenyl]-ureido}-benzamide]",63.4
16,"COc1cnc(-c2ccc(NC(=O)Nc3ccc(C(=O)O)cc3)cc2)nc1N1CCOCC1 [MTR-0351, 4-{3-[4-(5-Methoxy-4-morpholin-4-yl-pyrimidin-2-yl)-phenyl]-ureido}-benzoic acid]",52.3

# — patent US9315491B2 (DEVELOPMENT CENTER FOR BIOTECHNOLOGY, priority 2009, dated 2016)
